In patent US9765049B2, “N-cycloalkyl-N-[(fusedphenyl)methylene]-(thio)carboxamide derivatives” (BAYER CROPSCIENCE AG, priority 2013, dated 2017):
Where two headings read alike, the source gives them in different places.

How the values were obtained:
[1] = log P by HPLC on reversed-phase column (C 18), EEC Directive 79/831 Annex V.A8; assay type: physicochemical; conditions: for logP: Table 1, 40° C.
Method: In table 1, the log P values were determined in accordance with EEC Directive 79/831 Annex V.A8 by HPLC (High Performance Liquid Chromatography) on a reversed-phase column (C 18), using the method described below: Temperature: 40° C.; Mobile phases: 0.1% aqueous formic acid and acetonitrile; linear gradient from 10% acetonitrile to 90% acetonitrile. Calibration was carried out using unbranched alkan-2-ones (comprising 3 to 16 carbon atoms) with known log P values (determination of the log P values by the retention times using linear interpolation between two successive alkanones). lambda-max-values were determined using UV-spectra from 200 nm to 400 nm and the peak values of the chromatographic signals.

Septoria tritici = test: In vivo preventive test on Septoria tritici (wheat); conditions: 500 ppm, wheat plants, preventive spray, evaluated 24 days after inoculation
Method: (§1) Example E: In Vivo Preventive Test on Septoria tritici (Wheat) [table] The active ingredients are made soluble and homogenized in a mixture of Dimethyl sulfoxide/Acetone/Tween®80 and then diluted in water to the desired concentration. The young plants of wheat are treated by spraying the active ingredient prepared as described above. Control plants are treated only with an aqueous solution of Acetone/Dimethyl sulfoxide/Tween® 80. After 24 hours, the plants are contaminated by spraying the leaves with an aqueous suspension of Septoria tritici spores. The contaminated wheat plants are incubated for 72 hours at 18° C. and at 100% relative humidity and then for 21 days at 20° C. and at 90% relative humidity.

Sphaerotheca fuliginea = test: In vivo preventive test on Sphaerotheca fuliginea (powdery mildew on cucurbits); conditions: 500 ppm, gherkin plants, preventive spray, evaluated 15 days after inoculation
Method: (§2) Example F: In Vivo Preventive Test on Sphaerotheca fuliginea (Powdery Mildew on Cucurbits) [table] The active ingredients are made soluble and homogenized in a mixture of Dimethyl sulfoxide/Acetone/Tween®80 and then diluted in water to the desired concentration. The young plants of gherkin are treated by spraying the active ingredient prepared as described above. Control plants are treated only with an aqueous solution of Acetone/Dimethyl sulfoxide/Tween® 80. After 24 hours, the plants are contaminated by spraying the leaves with an aqueous suspension of Sphaerotheca fuliginea spores.

Puccinia recondita = test: In vivo preventive test on Puccinia recondita (brown rust on wheat); conditions: 500 ppm, wheat plants, preventive spray, evaluated 11 days after inoculation
Method: as §2, with “C:” for “F:”, “Puccinia recondita (Brown Rust” for “Sphaerotheca fuliginea (Powdery Mildew”, “Wheat)” for “Cucurbits)”, “wheat” for “gherkin”, “Puccinia recondita” for “Sphaerotheca fuliginea”

Botrytis cinerea = test: In vivo preventive test Botrytis cinerea (grey mould); conditions: gherkin plants
Method: as §1, with “B:” for “E:”, “Botrytis cinerea (Grey Mould)” for “on Septoria tritici (Wheat)”, “gherkin” for “wheat”, “Botrytis cinerea” for “Septoria tritici”, “4 to 5” for “72 hours at 18° C. and at 100% relative humidity and then for 21”, “17°” for “20°”

Pyrenophora teres = test: In vivo preventive test on Pyrenophora teres (net blotch on barley); conditions: 500 ppm, barley plants, preventive spray, evaluated 14 days after inoculation
Method: as §2, with “D:” for “F:”, “Pyrenophora teres (Net Blotch” for “Sphaerotheca fuliginea (Powdery Mildew”, “Barley)” for “Cucurbits)”, “barley” for “gherkin”, “Pyrenophora teres” for “Sphaerotheca fuliginea”

[2] = tested on: Fusarium nivale (var. majus); test: Efficacy against Fusarium nivale (var. majus) (wheat), curative test; assay type: in vivo; conditions: evaluated 5 days after inoculation
Method: Example I: Efficacy Against Fusarium nivale (Var. Majus) (Wheat) [table] To produce a suitable preparation of active compound, 1 part by weight of active compound or active compound combination is mixed with the stated amounts of solvent and emulsifier, and the concentrate is diluted with water to the desired concentration. […] After the spray coating has dried on, the plants remain in a greenhouse under translucent incubation cloches at a temperature of approximately 10° C. and a relative atmospheric humidity of approximately 100%.

Uromyces appendiculatus = test: In vivo preventive test on Uromyces appendiculatus (bean rust); conditions: Table G; 500 ppm, bean plants, preventive spray, evaluated 11 days after inoculation
Method: as §2, with “G:” for “F:”, “Uromyces appendiculatus (Bean Rust)” for “Sphaerotheca fuliginea (Powdery Mildew on Cucurbits)”, “bean” for “gherkin”, “Uromyces appendiculatus” for “Sphaerotheca fuliginea”

[3] = reversed-phase HPLC column (C 18), Table 2 (amines of formula IIa), HPLC, 0.1% aqueous formic acid and acetonitrile, read-out: logP
[4] = HPLC, 0.1% aqueous formic acid and acetonitrile
[5] = reversed-phase HPLC column (C 18), Table 3 (aldehydes of formula IV), HPLC, 0.1% aqueous formic acid and acetonitrile, read-out: logP
[6] = Table B, 500 ppm, preventive spray, evaluated 4 to 5 days after inoculation

In the case of `C1=CC2CC1c1cccc(CNC3CC3)c12` (stereo not shown) [IIa.2, N-(1,4-dihydro-1,4-methanonaphthalen-5-ylmethyl)cyclopropanamine], the chromatographic logP [1, 3] is reported as 1.13.

Compound `Cc1cc(C(=O)N(Cc2cccc3c2C2C=CC3O2)C2CC2)c(C)o1` (stereo not shown) [I.16] has a logP [1, 4] of 2.82 and an Efficacy (Septoria tritici) of 81%.

Work on `Cn1nc(C(F)F)c(C(=O)N(Cc2cccc3c2C2C=CC3C2)C2CC2)c1Cl` (stereo not shown) [I.05] yielded a logP [1, 4] of 3.70, an Efficacy (Sphaerotheca fuliginea) of 72% and an Efficacy (Puccinia recondita) of 94%. For the same compound, the Efficacy (Septoria tritici) was 81%.

With `Cn1nc(C(F)F)c(C(=O)N(Cc2cccc3ccccc23)C2CC2)c1F` [CMP1, N-cyclopropyl-3-(difluoromethyl)-5-fluoro-1-methyl-N-(1-naphthylmethyl)-1H-pyrazole-4-carboxamide, reference compound] the Efficacy (Botrytis cinerea; Table B2, dose 100 ppm) was 10% and the Efficacy (Botrytis cinerea; Table B2, dose 500 ppm) was 70%.

`c1cc(CNC2CC2)c2c(c1)C1CCC2C1` (stereo not shown) [IIa.1, N-(1,2,3,4-tetrahydro-1,4-methanonaphthalen-5-ylmethyl)cyclopropanamine] showed a chromatographic logP [1, 3] of 1.31.

`Cn1nc(C(F)F)c(C(=S)N(Cc2cccc3c2C2C=CC3O2)C2CC2)c1F` (stereo not shown) [I.19] showed a logP [1, 4] of 3.04.

`Cn1nc(C(F)F)c(C(=O)N(Cc2cccc3c2C2C=CC3O2)C2CC2)c1F` (stereo not shown) [I.14] showed a logP [1, 4] of 2.31, an Efficacy (Sphaerotheca fuliginea) of 94% and an Efficacy (Pyrenophora teres) of 75%. The Efficacy (Septoria tritici) was 98%.

`Cn1cc(C(=O)N(Cc2cccc3c2C2C=CC3O2)C2CC2)c(C(F)(F)F)c1` (stereo not shown) [I.17] showed a logP [1, 4] of 2.70.

Work on `Cc1nn(C)c(F)c1C(=O)N(C1CC1)C(C)c1cccc2c1CCCC2` (stereo not shown) [CMP4, N-cyclopropyl-5-fluoro-1,3-dimethyl-N-[1-(5,6,7,8-tetrahydronaphthalen-1-yl)ethyl]-1H-pyrazole-4-carboxamide] yielded an Efficacy ([2]; dose 250 ppm) of 29% and an Efficacy ([2]; dose 500 ppm) of 57%.

For `O=Cc1cccc2c1C1CCC2C1` (stereo not shown) [IV.1, 1,2,3,4-tetrahydro-1,4-methanonaphthalene-5-carbaldehyde], the chromatographic logP [1, 5] was 3.13.

With `Cc1nn(C)c(F)c1C(=O)N(C1CC1)C(C)c1cccc2c1CCC(C)(C)C2` (stereo not shown) [CMP5, N-cyclopropyl-N-[1-(6,6-dimethyl-5,6,7,8-tetrahydronaphthalen-1-yl)ethyl]-5-fluoro-1,3-dimethyl-1H-pyrazole-4-carboxamide] the Efficacy ([2]; dose 250 ppm) was 44% and the Efficacy ([2]; dose 500 ppm) was 56%.

Work on `Cn1nc(C(F)F)c(C(=O)N(Cc2cccc3c2C2CCC3O2)C2CC2)c1F` (stereo not shown) [I.12] yielded a logP [1, 4] of 2.55, an Efficacy (Sphaerotheca fuliginea) of 100% and an Efficacy (Puccinia recondita) of 89%. It also gave an Efficacy (Botrytis cinerea; [6]) of 99% and an Efficacy (Septoria tritici) of 100%.

Work on `ClC(Cl)=C1C2CCC1c1c(CNC3CC3)cccc12` (stereo not shown) [IIa.3, N-{[9-(dichloromethylene)-1,2,3,4-tetrahydro-1,4-methanonaphthalen-5-yl]methyl}-cyclopropanamine] yielded a chromatographic logP [1] of 1.95.

In the case of `O=C(c1ccsc1Br)N(Cc1cccc2c1C1C=CC2O1)C1CC1` (stereo not shown) [I.21], the logP [1, 4] is reported as 2.96.

In the case of `Cn1nc(C(F)F)c(C(=O)N(Cc2cccc3c2C2C=CC3O2)C2CC2)c1Cl` (stereo not shown) [I.13], the logP [1, 4] is reported as 2.42.

For `O=Cc1cccc2c1C1CCC2C1=C(Cl)Cl` (stereo not shown) [IV.3, 9-(dichloromethylene)-1,2,3,4-tetrahydro-1,4-methanonaphthalene-5-carbaldehyde], the chromatographic logP [1] was 4.09.

In the case of `Cn1cc(C(=O)N(Cc2cccc3c2CCCC3)C2CC2)c(C(F)F)n1` [CMP3, N-cyclopropyl-3-(difluoromethyl)-1-methyl-N-(5,6,7,8-tetrahydronaphthalen-1-ylmethyl)-1H-pyrazole-4-carboxamide, reference compound], the Efficacy (Botrytis cinerea; Table B2, dose 100 ppm) is reported as 0% and the Efficacy (Botrytis cinerea; Table B2, dose 500 ppm) is reported as 0%.

In the case of `C1=CC2OC1c1cccc(CNC3CC3)c12` (stereo not shown) [IIa.5, N-(1,4-dihydro-1,4-epoxynaphthalen-5-ylmethyl)cyclopropanamine], the chromatographic logP [1, 3] is reported as 0.13.

Compound `Cn1nc(C(F)F)c(C(=S)N(Cc2cccc3c2C2C=CC3O2)C2CC2)c1Cl` (stereo not shown) [I.20] has a logP [1, 4] of 3.17.

Work on `CC1CCc2cccc(C(C)N(C(=O)c3c(C(F)F)nn(C)c3F)C3CC3)c2C1` (stereo not shown) [50 from WO-2010/130767, N-cyclopropyl-3-(difluoromethyl)-5-fluoro-1-methyl-N-[1-(7-methyl-5,6,7,8-tetrahydronaphthalen-1-yl)ethyl]-1H-pyrazole-4-carboxamide] yielded an Efficacy ([2]; dose 250 ppm) of 67% and an Efficacy ([2]; dose 500 ppm) of 67%.

Work on `O=Cc1cccc2c1C1C=CC2O1` (stereo not shown) [IV.5, 1,4-dihydro-1,4-epoxynaphthalene-5-carbaldehyde] yielded a chromatographic logP [1, 5] of 1.5.

In the case of `O=Cc1cccc2c1C1C=CC2C1` (stereo not shown) [IV.2, 1,4-dihydro-1,4-methanonaphthalene-5-carbaldehyde], the chromatographic logP [1, 5] is reported as 2.73.

With `Cc1nc(C(F)F)c(C(=O)N(Cc2cccc3c2C2C=CC3O2)C2CC2)s1` (stereo not shown) [I.18] the logP [1, 4] was 2.51.

In the case of `O=Cc1cccc2c1C1CCC2O1` (stereo not shown) [IV.4, 1,2,3,4-tetrahydro-1,4-epoxynaphthalene-5-carbaldehyde], the chromatographic logP [1, 5] is reported as 1.66.

With `Cn1nc(C(F)F)c(C(=O)N(Cc2cccc3c2C2CCC3C2=C(Cl)Cl)C2CC2)c1Cl` (stereo not shown) [I.06] the logP [1, 4] was 4.66, the Efficacy (Sphaerotheca fuliginea) was 95% and the Efficacy (Pyrenophora teres) was 71%. For the same compound, the Efficacy (Septoria tritici) was 71%.

Compound `Cn1cc(C(=O)N(Cc2cccc3c2C2C=CC3O2)C2CC2)c(C(F)F)n1` (stereo not shown) [I.15] has a logP [1, 4] of 2.05 and an Efficacy (Sphaerotheca fuliginea) of 72%.

`c1cc(CNC2CC2)c2c(c1)C1CCC2O1` (stereo not shown) [IIa.4, N-(1,2,3,4-tetrahydro-1,4-epoxynaphthalen-5-ylmethyl)cyclopropanamine] showed a chromatographic logP [1, 3] of 0.45.

Compound `Cc1cc(C(=O)N(Cc2cccc3c2C2CCC3O2)C2CC2)c(C)o1` (stereo not shown) [I.22] has a logP [1, 4] of 3.04.

With `Cc1nn(C)c(F)c1C(=O)N(Cc1cccc2c1CCCC2)C1CC1` [CMP2, N-cyclopropyl-5-fluoro-1,3-dimethyl-N-(5,6,7,8-tetrahydronaphthalen-1-ylmethyl)-1H-pyrazole-4-carboxamide, reference compound] the Efficacy (Botrytis cinerea; Table B2, dose 100 ppm) was 0% and the Efficacy (Botrytis cinerea; Table B2, dose 500 ppm) was 35%.

Work on `Cn1cc(C(=O)N(Cc2cccc3c2C2C=CC3C2)C2CC2)c(C(F)F)n1` (stereo not shown) [I.03] yielded a logP [1, 4] of 3.19, an Efficacy (Sphaerotheca fuliginea) of 98% and an Efficacy (Pyrenophora teres) of 88%.

Work on `Cn1nc(C(F)F)c(C(=S)N(Cc2cccc3c2C2CCC3C2=C(Cl)Cl)C2CC2)c1Cl` (stereo not shown) [I.09] yielded a logP [1, 4] of 5.39, an Efficacy (Sphaerotheca fuliginea) of 98% and an Efficacy (Uromyces appendiculatus) of 78%.

`Cn1cc(C(=S)N(Cc2cccc3c2C2CCC3C2=C(Cl)Cl)C2CC2)c(C(F)F)n1` (stereo not shown) [I.10] showed a logP [1, 4] of 4.83, an Efficacy (Sphaerotheca fuliginea) of 100% and an Efficacy (Puccinia recondita) of 88%. The Efficacy (Botrytis cinerea; [6]) was 100% and the Efficacy (Septoria tritici) was 100%.
